ChEMBL document CHEMBL4251653, “In vivo potent BM635 analogue with improved drug-like properties” (Eur J Med Chem, 2018)
In brackets after ≈: the same amount, converted by molar mass.

Columns and labels:
HepG2 [1] = assay: Cytotoxicity against human HepG2 cells assessed as compound concentration causing changes in membrane permeability by Cell Health assay; assay type: cell-based
[2] = system: Mycobacterium tuberculosis; assay: microbe, parasite or virus in culture; details: 144 h
Description: Antitubercular activity against Mycobacterium tuberculosis after 6 days by resazurin-based fluorescence assay

in vitro = details: human, HepG2 cells
Description: Selectivity index, ratio of TC50 for human HepG2 cells to MIC for Mycobacterium tuberculosis

[3] = Lipophilicity, log D of the compound at pH 7.4 by UV-HPLC method; assay type: physicochemical; details: buffer
[4] = system: Mycobacterium tuberculosis; assay: microbe, parasite or virus in culture; details: H37Rv, THP-1, 96 h
Description: Antitubercular activity against Mycobacterium tuberculosis H37Rv infected in human THP1 macrophages incubated for 4 days by luciferase reporter gene assay

[5] = target: Voltage-gated inwardly rectifying potassium channel KCNH2 (Homo sapiens, UniProt Q12809); assay: Inhibition of human ERG by [3H]dofetilide binding displacement assay
Chain of Voltage-gated inwardly rectifying potassium channel KCNH2 (Q12809 whole entry): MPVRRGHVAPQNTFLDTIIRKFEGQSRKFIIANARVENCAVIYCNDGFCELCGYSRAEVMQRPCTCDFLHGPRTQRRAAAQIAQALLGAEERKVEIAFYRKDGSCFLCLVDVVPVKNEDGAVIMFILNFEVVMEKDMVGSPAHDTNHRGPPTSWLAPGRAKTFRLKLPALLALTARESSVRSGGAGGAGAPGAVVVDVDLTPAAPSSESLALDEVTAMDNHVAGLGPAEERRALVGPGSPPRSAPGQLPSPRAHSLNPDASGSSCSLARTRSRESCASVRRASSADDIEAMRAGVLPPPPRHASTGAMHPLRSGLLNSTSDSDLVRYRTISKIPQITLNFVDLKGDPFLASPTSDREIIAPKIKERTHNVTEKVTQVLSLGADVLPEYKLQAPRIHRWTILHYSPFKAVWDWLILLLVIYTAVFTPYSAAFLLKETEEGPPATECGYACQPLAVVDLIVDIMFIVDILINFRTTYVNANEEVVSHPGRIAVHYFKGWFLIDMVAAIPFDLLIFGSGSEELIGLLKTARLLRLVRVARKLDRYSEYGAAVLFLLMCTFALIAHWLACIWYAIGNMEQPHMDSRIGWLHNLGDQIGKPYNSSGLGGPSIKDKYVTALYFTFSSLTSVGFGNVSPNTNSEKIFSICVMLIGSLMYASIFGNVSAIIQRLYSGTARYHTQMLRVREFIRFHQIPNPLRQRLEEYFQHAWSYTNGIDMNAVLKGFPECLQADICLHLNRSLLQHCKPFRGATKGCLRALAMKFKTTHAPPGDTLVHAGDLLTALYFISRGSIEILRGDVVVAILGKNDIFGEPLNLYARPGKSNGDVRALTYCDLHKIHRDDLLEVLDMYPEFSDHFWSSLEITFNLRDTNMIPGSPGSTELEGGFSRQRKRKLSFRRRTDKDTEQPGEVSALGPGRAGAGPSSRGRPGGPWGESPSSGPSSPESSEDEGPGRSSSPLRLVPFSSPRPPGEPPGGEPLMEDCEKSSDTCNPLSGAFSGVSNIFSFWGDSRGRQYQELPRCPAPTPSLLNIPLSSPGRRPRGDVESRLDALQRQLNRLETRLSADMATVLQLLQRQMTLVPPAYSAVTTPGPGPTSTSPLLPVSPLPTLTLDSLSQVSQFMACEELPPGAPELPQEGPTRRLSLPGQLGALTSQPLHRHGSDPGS

Albumin = Albumin (Homo sapiens, UniProt P02768); assay: Binding affinity to human serum albumin; assay type: ADME; details: isolated protein
Chain of Albumin (P02768 whole entry): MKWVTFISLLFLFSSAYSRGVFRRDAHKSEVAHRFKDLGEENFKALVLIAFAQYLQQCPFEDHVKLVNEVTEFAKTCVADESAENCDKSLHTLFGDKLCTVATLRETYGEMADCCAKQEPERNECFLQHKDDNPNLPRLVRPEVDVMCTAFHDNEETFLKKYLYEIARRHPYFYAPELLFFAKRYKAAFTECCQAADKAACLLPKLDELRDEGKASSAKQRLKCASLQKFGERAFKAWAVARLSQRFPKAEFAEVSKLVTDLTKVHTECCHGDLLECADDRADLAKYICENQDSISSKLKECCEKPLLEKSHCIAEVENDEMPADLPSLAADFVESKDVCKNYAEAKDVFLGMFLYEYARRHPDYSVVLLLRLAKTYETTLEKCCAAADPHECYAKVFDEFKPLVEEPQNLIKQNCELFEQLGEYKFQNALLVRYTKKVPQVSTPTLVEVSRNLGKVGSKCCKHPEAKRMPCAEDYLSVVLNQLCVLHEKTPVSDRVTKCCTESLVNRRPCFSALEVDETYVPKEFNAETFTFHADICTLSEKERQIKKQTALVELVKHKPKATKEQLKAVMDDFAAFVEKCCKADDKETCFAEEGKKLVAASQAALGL

[6] = Kinetic solubility in pH 7.4 phosphate buffered saline incubated for 1 hr by chemiluminescent nitrogen detection method; assay type: physicochemical; details: read-out: Kinetic_solubility
[7] = Cytotoxicity against human HepG2 cells incubated for 48 hrs by Cell-titer Glo assay; assay type: cell-based; details: read-out: TC50
HepG2 [8] = assay: Cytotoxicity against human HepG2 cells assessed as compound concentration causing changes in nuclear morphology by Cell Health assay; assay type: cell-based
HepG2 [9] = assay: Cytotoxicity against human HepG2 cells assessed as compound concentration causing changes in mitochondrial potential by Cell Health assay; assay type: cell-based
[10] = Solubility of the compound in FaSSIF at pH 6.5 incubated for 4 hrs by UPLC-MS method; assay type: physicochemical
[11] = Permeability of the compound by artificial membrane permeability assay; assay type: ADME; details: PAMPA; read-out: permeability
[12] = AUC (0 to infinity) in C57BL/6 mouse at 1 mg/kg, iv after 1 to 24 hrs by LC-MS/MS method; assay type: ADME, organism-based; set-up: dose 1 mg/kg, time infinity, route intravenous; details: in vivo
Mus musculus [13] = assay: Dose normalized AUC (0 to infinity) in C57BL/6 mouse at 1 mg/kg, iv after 1 to 24 hrs by LC-MS/MS method; assay type: ADME, organism-based; details: in vivo
[14] = Clearance in C57BL/6 mouse at 1 mg/kg, iv after 1 to 24 hrs by LC-MS/MS method; assay type: ADME, organism-based; details: in vivo
[15] = Half life in C57BL/6 mouse at 1 mg/kg, iv after 1 to 24 hrs by LC-MS/MS method; assay type: ADME, organism-based; details: in vivo
[16] = Oral bioavailability in C57BL/6 mouse at 50 mg/kg after 1 to 24 hrs by LC-MS/MS method; assay type: ADME, organism-based; details: in vivo
[17] = system: Mycobacterium tuberculosis; assay type: functional, H37Rv
[18] = Cmax in C57BL/6 mouse at 50 mg/kg, po after 1 to 24 hrs by LC-MS/MS method; assay type: ADME, organism-based; set-up: dose 50 mg/kg, route oral; details: in vivo
[19] = Volume of distribution at steady state in C57BL/6 mouse at 1 mg/kg, iv after 1 to 24 hrs by LC-MS/MS method; assay type: ADME, organism-based; details: in vivo, read-out: Vdss
[20] = Tmax in C57BL/6 mouse at 50 mg/kg, po after 1 to 24 hrs by LC-MS/MS method; assay type: ADME, organism-based; details: in vivo
Mus musculus [21] = assay: Tlast in C57BL/6 mouse at 50 mg/kg, po after 1 to 24 hrs by LC-MS/MS method; assay type: ADME, organism-based; details: in vivo
Mus musculus [22] = assay: Dose normalized AUC (0 to infinity) in C57BL/6 mouse at 4 mg/kg, iv after 1 to 24 hrs by LC-MS/MS method; assay type: ADME, organism-based; details: in vivo
[23] = Volume of distribution at steady state in C57BL/6 mouse at 4 mg/kg, iv after 1 to 24 hrs by LC-MS/MS method; assay type: ADME, organism-based; details: in vivo, read-out: Vdss
[24] = Half life in C57BL/6 mouse at 4 mg/kg, iv after 1 to 24 hrs by LC-MS/MS method; assay type: ADME, organism-based; details: in vivo
[25] = Clearance in C57BL/6 mouse at 4 mg/kg, iv after 1 to 24 hrs by LC-MS/MS method; assay type: ADME, organism-based; details: in vivo
[26] = AUC (0 to infinity) in C57BL/6 mouse at 4 mg/kg, iv after 1 to 24 hrs by LC-MS/MS method; assay type: ADME, organism-based; set-up: dose 4 mg/kg, route intravenous, time infinity; details: in vivo
[27] = system: Mycobacterium tuberculosis; assay type: functional, H37Rv; remark: listed apart in the source

SMILES: Cc1c(CN2CCOCC2)cc(-c2ccc(C(C)C)cc2)n1-c1ccc(F)cc1
- Activity (HepG2 [1]): > 40 µM
- MIC [2]: 0.12 µM (≈ 0.0471 µg/mL)
- selectivity ratio (in vitro): 333
- logD ([3]; read-out: logD): 8.1
- IC50 [4]: 0.1 µM
- IC50 [5]: 10 µM
- Activity (Albumin): 98.37%
- solubility kinetic at 1 h [6]: < 1 µM
- CC50 at 48 h [7]: 40 µM
- Activity (HepG2 [8]): > 40 µM
- Activity (HepG2 [9]): > 40 µM
- solubility at 4 h [10]: 5 µg/mL (≈ 12.7 µM)
- Papp [11]: 24 ×10⁻⁶ cm/s

SMILES: Cc1c(CN2CCOCC2)cc(-c2ccc(C(C)C)cc2)n1C1CCCCC1
- Activity (HepG2 [1]): > 200 µM
- MIC [2]: 0.3 µM (≈ 0.114 µg/mL)
- selectivity ratio (in vitro): > 267
- logD [3]: 9.13
- IC50 [4]: 0.63 µM
- IC50 [5]: 50 µM
- Activity (Albumin): 98.1%
- solubility kinetic at 1 h [6]: < 1 µM
- CC50 at 48 h [7]: > 100 µM
- Activity (HepG2 [8]): > 200 µM
- Activity (HepG2 [9]): > 200 µM
- Papp [11]: 27 ×10⁻⁶ cm/s

SMILES: Cc1c(CN2CCOCC2)cc(-c2ccc(C(C)C)cc2)n1C1CC1
- Activity (HepG2 [1]): 40 µM
- MIC [2]: 0.3 µM (≈ 0.102 µg/mL)
- selectivity ratio (in vitro): 67
- logD ([3]; read-out: logD): 7.21
- IC50 [4]: 0.2 µM
- IC50 [5]: 8 µM
- Activity (Albumin): 96.49%
- solubility kinetic at 1 h [6]: 181 µM (≈ 61.3 µg/mL)
- CC50 at 48 h [7]: 20 µM
- Activity (HepG2 [8]): 40 µM
- Activity (HepG2 [9]): 50 µM
- solubility at 4 h [10]: 511 µg/mL (≈ 1510 µM)

SMILES: Cc1c(CN2CCOCC2)cc(-c2ccc(C(C)C)cc2)n1C1CCCOC1 (stereo unspecified)
- AUC(0-inf) [12]: 138 ng·h/mL
- Activity (HepG2 [1]): > 200 µM
- AUC/dose (Mus musculus [13]): 138 ng·h/mL/mg/kg
- MIC [2]: 0.15 µM (≈ 0.0574 µg/mL)
- selectivity ratio (in vitro): 333
- clearance [14]: 125 mL/min/kg
- logD ([3]; read-out: logD): 6.86
- half-life [15]: 24 min
- bioavailability [16]: 23%
- IC50 [4]: 0.3 µM
- IC50 [5]: 10 µM
- Activity (Albumin): 92.85%
- solubility kinetic at 1 h [6]: 241 µM (≈ 92.2 µg/mL)
- Activity [17]: 0.1 log10CFU
- Cmax [18]: 548 ng/mL
- CC50 at 48 h [7]: 50 µM
- Vd [19]: 3.5 L/kg
- Activity (HepG2 [8]): > 200 µM
- Activity (HepG2 [9]): > 200 µM
- solubility at 4 h [10]: 43 µg/mL (≈ 112 µM)
- Tmax [20]: 54 min
- Tlast (Mus musculus [21]): 8 h
- Papp [11]: 73 ×10⁻⁶ cm/s

SMILES: Cc1c(CN2CCOCC2)cc(-c2ccc(C(C)C)cc2)n1C(C)C
- Activity (HepG2 [1]): 32 µM
- MIC [2]: 0.15 µM (≈ 0.0511 µg/mL)
- logD ([3]; read-out: logD): 7.68
- AUC/dose (Mus musculus [22]): 1006 ng·h/mL/mg/kg
- bioavailability [16]: 1.2%
- Activity (Albumin): 94.11%
- solubility kinetic at 1 h [6]: 199 µM (≈ 67.8 µg/mL)
- Activity [17]: 1.5 log10CFU
- Cmax [18]: 177 ng/mL
- Vd [23]: 1.8 L/kg
- CC50 at 48 h [7]: 20 µM
- half-life [24]: 102 min
- clearance [25]: 16.9 mL/min/kg
- AUC(0-inf) [26]: 4020 ng·h/mL
- Activity (HepG2 [8]): 25 µM
- Activity (HepG2 [9]): 32 µM
- solubility at 4 h [10]: 249 µg/mL (≈ 731 µM)
- Tmax [20]: 42 min
- Tlast (Mus musculus [21]): 7.3 h
- Papp [11]: 72 ×10⁻⁶ cm/s

SMILES: COc1c(N2C[C@@H]3CCCN[C@@H]3C2)c(F)cc2c(=O)c(C(=O)O)cn(C3CC3)c12 [MOXIFLOXACIN]
- Activity [27]: 3.1 log10CFU
